16 compounds from US10624897B2, “Chlorobenzene substituted azaaryl compounds” (TAIPEI MEDICAL UNIVERSITY, priority 2015, dated 2020) can be followed below.

The subject of one data set is RT-112 tumor xenografts. As to conditions: 5 mg/kg/wk, i.p., nude mice.
The test system of another data set is PLC/PRF/5. Nature of the data set: MTT assay, cell viability. The format is cell-based. The note with it: PLC5, 5 uM, 72 hours. The method, then: (§1) Cells were cultured in RPMI-1640 (RT-112, KMS-11, SNU-16, HT-29, HCT-116, NCI—H520, Hep3B, PLC/PRF/5, HL-60, MOLT-4) and DMEM (HepG2, MCF-7, MDA-MB-231) with 10% FBS (v/v) and Penicillin/Streptomycin (100 U/ml). FU-DDLS-1 cell line was maintained in DMEM:F12 medium with 10% FBS. LiSa-2 cell line was maintained in IMDM/RPMI-1640 in a 4:1 ratio supplemented with 10% FBS, 2 mmol/L L-glutamine, and 0.1 mg/mL gentamicin. Human umbilical vein endothelial cells (HUVECs) were grown to confluence on 1% collagen, and maintained in 90% Medium 199 with 25 U/ml heparin, 30 μg/ml endothelial cell growth supplement (ECGS) adjusted to contain 1.5 g/L sodium bicarbonate, 10% FBS and Penicillin/Streptomycin (100 U/ml) Cultures were maintained at 37° C. in a humidified atmosphere of 5% CO2/95% air.
(§2) Cells were seeded in 96-well plates (5,000 cells/well) and incubated overnight for attachment, and were then treated with indicated agents in 10% FBS-supplemented medium for 72 hours. The medium was replaced with MTT (0.5 mg/mL) at 37° C. for 1 hours. After removal of medium, the cells were lysed with 100 μL per well dimethyl sulfoxide (DMSO), and absorbance at 550 nm was measured with microplate reader. The relative cell viability (%) was expressed as a percentage relative to a DMSO control cells.
On the technique in general: Formazan colour is commonly taken as a measure of viable cells.

The test system of a further data set is Hep3B. Nature of the data set: MTT assay, cell viability. The format is cell-based. As to conditions: 5 uM, 72 hours. The method, then:
as §1, §2

The test system of another data set is RT-112. Nature of the data set: MTT assay, cell viability. The format is cell-based. As to conditions: 72 hours. Here is the method: as §1, §2
A further data set has as its system SNU-16. The experiment in a line: MTT assay, cell viability. The note with it: 72 hours. The format is cell-based. Here is the method:
as §1, §2

Another data set has as its system RT-112 cells. The experiment in a line: Cell cycle distribution by flow cytometry. The format is cell-based. The note with it: 48 h to 72 h, FIG. 3A. (In general: In flow cytometry, cells or beads pass a laser one at a time.)

The structures appear in SMILES notation.

Experimental for RT-112 tumor xenografts: Eight-week-old female athymic nude mice were group-housed in the TMU Laboratory Animal Center (Taipei, Taiwan) under conditions of constant photoperiod (12 h light/12 h dark at 21-0023° C. and 60-85% humidity) with ad libitum access to sterilized food and water. […] Tumors were measured weekly using calipers. Tumor volume (mm3) was calculated from w2×½ (w=width, 1=length in mm of the tumor).

Consider `N.N.[Cl][Pt][Cl]` [Cisplatin, reference compound], for which the “Tumor growth inhibition (%)” value with RT-112 tumor xenografts turned out to be 56.3%.
On to `CCN1CCN(c2ccc(Nc3cc(N(C)C(=O)Nc4c(Cl)c(OC)c(Cl)c(OC)c4Cl)ncn3)cc2)CC1` [MPT0L090, 1-(6-((4-(4-ethylpiperazin-1-yl)phenyl)amino)pyrimidin-4-yl)-1-methyl-3-(2,4,6-trichloro-3,5-dimethoxyphenyl)urea], for which the “Viability (% of control cells) PLC5 (5 uM) Mean” value with PLC/PRF/5 is reported as 72.6 % of control cells. In addition, the “Viability (% of control cells) Hep3B (5 uM) Mean” value with Hep3B is on record as 47.1 % of control cells. For the same compound, in the data set on RT-112, the “Viability (% of control cells) RT-112 (5 uM) Mean” value is listed as 52.6 % of control cells and the “Viability (% of control cells) RT-112 (10 uM) Mean” value was 12.7 % of control cells. Moreover, in the data set on SNU-16, the “Viability (% of control cells) SNU-16 (5 uM) Mean” value is 27.5 % of control cells.
Turning to `CCN1CCN(c2ccc(Nc3cc(N(C)C(=O)Nc4c(Cl)c(OC)c(Cl)c(OC)c4Cl)nc(-c4ccccc4)n3)cc2)CC1` [MPT0L146, 1-(6-((4-(4-ethylpiperazin-1-yl)phenyl)amino)-2-phenylpyrimidin-4-yl)-1-methyl-3-(2,4,6-trichloro-3,5-dimethoxyphenyl)urea], in the data set on PLC/PRF/5, the “Viability (% of control cells) PLC5 (5 uM) Mean” value is 88.0 % of control cells. The “Viability (% of control cells) Hep3B (5 uM) Mean” value with Hep3B is 94.3 % of control cells. Also, in the data set on RT-112, the “Viability (% of control cells) RT-112 (5 uM) Mean” value is listed as 100.8 % of control cells and the “Viability (% of control cells) RT-112 (10 uM) Mean” value was 29.7 % of control cells. For the same compound, the “Viability (% of control cells) SNU-16 (5 uM) Mean” value in the data set with SNU-16 is given as 83.4 % of control cells.
With `COc1c(Cl)c(NC(=O)N(C)c2cc(-c3cccnc3)ncn2)c(Cl)c(OC)c1Cl` [MPT0L147, 1-methyl-1-(6-(pyridin-3-yl)pyrimidin-4-yl)-3-(2,4,6-trichloro-3,5-dimethoxyphenyl)urea], the “Viability (% of control cells) RT-112 (10 uM) Mean” value in the data set with RT-112 was 85.0 % of control cells.
On to `COc1c(Cl)c(NC(=O)N(C)c2cc(-c3ccncc3)ncn2)c(Cl)c(OC)c1Cl` [MPT0L148, 1-methyl-1-(6-(pyridin-4-yl)pyrimidin-4-yl)-3-(2,4,6-trichloro-3,5-dimethoxyphenyl)urea], for which, in the data set on RT-112, the “Viability (% of control cells) RT-112 (10 uM) Mean” value is given as 89.3 % of control cells.
Take `COc1c(Cl)c(NC(=O)N(C)c2cc(-c3ccccc3)ncn2)c(Cl)c(OC)c1Cl` [MPT0L149, 1-methyl-1-(6-phenylpyrimidin-4-yl)-3-(2,4,6-trichloro-3,5-dimethoxyphenyl)urea]: the “Viability (% of control cells) RT-112 (10 uM) Mean” value in the data set on RT-112 is listed as 82.3 % of control cells.
`COc1c(Cl)c(NC(=O)N(C)c2cc(-c3cccc(C#N)c3)ncn2)c(Cl)c(OC)c1Cl` [MPT0L150, 1-(6-(3-cyanophenyl)pyrimidin-4-yl)-1-methyl-3-(2,4,6-trichloro-3,5-dimethoxyphenyl)urea]: in the data set with RT-112, the “Viability (% of control cells) RT-112 (10 uM) Mean” value was 75.0 % of control cells.
On to `COc1c(Cl)c(NC(=O)N(C)c2cc(-c3cccc([N+](=O)[O-])c3)ncn2)c(Cl)c(OC)c1Cl` [MPT0L151, 1-methyl-1-(6-(3-nitrophenyl)pyrimidin-4-yl)-3-(2,4,6-trichloro-3,5-dimethoxyphenyl)urea], for which the “Viability (% of control cells) RT-112 (10 uM) Mean” value in the data set on RT-112 is given as 63.8 % of control cells.
On to `COc1c(Cl)c(NC(=O)N(C)c2cc(-c3ccc(C#N)cc3)ncn2)c(Cl)c(OC)c1Cl` [MPT0L152, 1-(6-(4-cyanophenyl)pyrimidin-4-yl)-1-methyl-3-(2,4,6-trichloro-3,5-dimethoxyphenyl)urea], for which the “Viability (% of control cells) RT-112 (10 uM) Mean” value in the data set with RT-112 was 55.3 % of control cells.
Take `COc1ccc(-c2cc(N(C)C(=O)Nc3c(Cl)c(OC)c(Cl)c(OC)c3Cl)ncn2)cc1` [MPT0L153, 1-(6-(4-methoxyphenyl)pyrimidin-4-yl)-1-methyl-3-(2,4,6-trichloro-3,5-dimethoxyphenyl)urea]: the “Viability (% of control cells) PLC5 (5 uM) Mean” value with PLC/PRF/5 was 91.3 % of control cells. Further, the “Viability (% of control cells) Hep3B (5 uM) Mean” value with Hep3B is listed as 93.6 % of control cells. In the data set on RT-112, the “Viability (% of control cells) RT-112 (5 uM) Mean” value is recorded as 63.8 % of control cells and the “Viability (% of control cells) RT-112 (10 uM) Mean” value is 43.0 % of control cells. Further, in the data set with SNU-16, the “Viability (% of control cells) SNU-16 (5 uM) Mean” value was 76.2 % of control cells.
As to `COc1c(Cl)c(NC(=O)N(C)c2cc(-c3ccco3)ncn2)c(Cl)c(OC)c1Cl` [MPT0L154, 1-(6-(furan-2-yl)pyrimidin-4-yl)-1-methyl-3-(2,4,6-trichloro-3,5-dimethoxyphenyl)urea], in the data set on RT-112, the “Viability (% of control cells) RT-112 (10 uM) Mean” value is reported as 76.1 % of control cells.
Consider `COc1c(Cl)c(NC(=O)N(C)c2cc(-c3ccc(F)cc3)ncn2)c(Cl)c(OC)c1Cl` [MPT0L155, 1-(6-(4-fluorophenyl)pyrimidin-4-yl)-1-methyl-3-(2,4,6-trichloro-3,5-dimethoxyphenyl)urea], for which the “Viability (% of control cells) PLC5 (5 uM) Mean” value in the data set with PLC/PRF/5 is given as 55.3 % of control cells. Further, the “Viability (% of control cells) Hep3B (5 uM) Mean” value in the data set on Hep3B was 72.8 % of control cells. For the same compound, in the data set with RT-112, the “Viability (% of control cells) RT-112 (5 uM) Mean” value is listed as 92.6 % of control cells and the “Viability (% of control cells) RT-112 (10 uM) Mean” value was 44.4 % of control cells. Besides, the “Viability (% of control cells) SNU-16 (5 uM) Mean” value in the data set with SNU-16 is reported as 80.5 % of control cells.
For `COc1c(Cl)c(NC(=O)N(C)c2cc(-c3ccc(Cl)cc3)ncn2)c(Cl)c(OC)c1Cl` [MPT0L156, 1-(6-(4-chlorophenyl)pyrimidin-4-yl)-1-methyl-3-(2,4,6-trichloro-3,5-dimethoxyphenyl)urea], the “Viability (% of control cells) PLC5 (5 uM) Mean” value with PLC/PRF/5 is reported as 44.4 % of control cells. The “Viability (% of control cells) Hep3B (5 uM) Mean” value in the data set on Hep3B is 54.3 % of control cells. For the same compound, in the data set on RT-112, the “Viability (% of control cells) RT-112 (5 uM) Mean” value is 98.3 % of control cells and the “Viability (% of control cells) RT-112 (10 uM) Mean” value is reported as 34.8 % of control cells. Further, the “Viability (% of control cells) SNU-16 (5 uM) Mean” value in the data set on SNU-16 was 76.7 % of control cells.
For `CCN1CCN(c2ccc(-c3cc(N(C)C(=O)Nc4c(Cl)c(OC)c(Cl)c(OC)c4Cl)ncn3)cc2)CC1` [MPT0L182, 1-(6-(4-(4-ethylpiperazin-1-yl)phenyl)pyrimidin-4-yl)-1-methyl-3-(2,4,6-trichloro-3,5-dimethoxyphenyl)urea] the same measures were 78.3 % of control cells, 96.3 % of control cells, 95.6 % of control cells, 8.6 % of control cells and 63.2 % of control cells.
With `CCN1CCN(c2ccc(Nc3nc(Cl)nc(N(C)C(=O)Nc4c(Cl)c(OC)c(Cl)c(OC)c4Cl)n3)cc2)CC1` [MPT0L183, 1-(4-chloro-6-((4-(4-ethylpiperazin-1-yl)phenyl)amino)-1,3,5-triazin-2-yl)-1-methyl-3-(2,4,6-trichloro-3,5-dimethoxyphenyl)urea], the “Viability (% of control cells) PLC5 (5 uM) Mean” value in the data set with PLC/PRF/5 was 45.0 % of control cells. In the data set on Hep3B, the “Viability (% of control cells) Hep3B (5 uM) Mean” value is 43.3 % of control cells. Besides, in the data set on RT-112, the “Viability (% of control cells) RT-112 (5 uM) Mean” value was 15.8 % of control cells and the “Viability (% of control cells) RT-112 (10 uM) Mean” value was 3.4 % of control cells. In addition, the “Viability (% of control cells) SNU-16 (5 uM) Mean” value in the data set with SNU-16 is recorded as 28.2 % of control cells.
On to `CC(=O)O[C@H]1C(=O)[C@@]2(C)[C@H]([C@H](OC(=O)c3ccccc3)[C@]3(O)C[C@H](OC(=O)[C@H](O)[C@@H](NC(=O)c4ccccc4)c4ccccc4)C(C)=C1C3(C)C)[C@]1(OC(C)=O)CO[C@@H]1C[C@@H]2O` [paclitaxel], for which the “accumulation of the sub-G1 phase (apoptotic cell death)” value in the data set on RT-112 cells was “induced pronounced apoptosis”.
